From ChEMBL document CHEMBL1770124, “Synthesis and in vitro evaluation of [18F]fluoroethyl triazole labelled [Tyr3]octreotate analogues using click chemistry” (Bioorg Med Chem Lett, 2011) come the findings set out here.

The nature of series [1]: Displacement of [111In]-DTPA-octreotide from somatostatin receptor in rat AR42J cells. It is filed as cell-based. The settings on record: ar-42j.
Series [2] is described as follows: Partition coefficient, log D of the compound. In kind it is physicochemical. The conditions noted are these: octanol/water.
Series [3] in a line: Displacement of [125I]-somatostatin-14 from somatostatin receptor in rat AR42J cells. In kind it is cell-based. The conditions noted are these: ar-42j. (Displacement assays read how much labelled ligand stays bound in the presence of the test substance.)

Where a SMILES comes first, the peptide text is derived from it. Bridges are numbered along the chain shown (N, C = ends). [ ]: non-standard residue; d: D form. The star is where a group is joined. Threoninol(2S,3R) = C[C@@H](O)[C@H](CO)N*

A word on the IC50: it is the concentration that gives 50% inhibition. A lower IC50 goes with inhibition by little substance. A word on the logD: it is lipophilicity at a set pH, counting ionised and neutral species. Higher therefore signals higher lipophilicity. Compound `C[C@@H](O)[C@H](NC(=O)[C@@H]1CSSC[C@H](NC(=O)[C@@H](Cc2ccccc2)NC(=O)CNC(=O)c2cn(CC[18F])nn2)C(=O)N[C@@H](Cc2ccc(O)cc2)C(=O)N[C@H](Cc2c[nH]c3ccccc23)C(=O)N[C@@H](CCCCN)C(=O)N[C@@H]([C@@H](C)O)C(=O)N1)C(=O)O` came in with a concentration for half-maximal inhibition (IC50) in series [1] of 0.004 µM. In series [2], the logD is -1.83. Compound `C#CC(=O)NCC(=O)NCCOCCOCCOCCOCCOCCOCCC(=O)N[C@H](Cc1ccccc1)C(=O)N[C@H]1CSSC[C@@H](C(=O)N[C@H](C(=O)O)[C@@H](C)O)NC(=O)[C@H]([C@@H](C)O)NC(=O)[C@H](CCCCN)NC(=O)[C@@H](Cc2c[nH]c3ccccc23)NC(=O)[C@H](Cc2ccc(O)cc2)NC1=O` registered an IC50 in series [1] of 0.00523 µM. With `C[C@@H](O)[C@H](NC(=O)[C@@H]1CSSC[C@H](NC(=O)[C@@H](Cc2ccccc2)NC(=O)CCOCCOCCOCCOCCOCCOCCNC(=O)CNC(=O)c2cn(CC[18F])nn2)C(=O)N[C@@H](Cc2ccc(O)cc2)C(=O)N[C@H](Cc2c[nH]c3ccccc23)C(=O)N[C@@H](CCCCN)C(=O)N[C@@H]([C@@H](C)O)C(=O)N1)C(=O)O`, in series [1], the 50% inhibitory concentration (IC50) is 0.0108 µM. Moreover, the logD in series [2] was -2.68.

Regarding `C#CCCC(=O)NCCOCCOCCOCCOCCOCCOCCC(=O)N[C@H](Cc1ccccc1)C(=O)N[C@H]1CSSC[C@@H](C(=O)N[C@H](C(=O)O)[C@@H](C)O)NC(=O)[C@H]([C@@H](C)O)NC(=O)[C@H](CCCCN)NC(=O)[C@@H](Cc2c[nH]c3ccccc23)NC(=O)[C@H](Cc2ccc(O)cc2)NC1=O`, in series [1], the half-inhibitory concentration (IC50) is 0.0051 µM. As to `C[C@@H](O)[C@H](NC(=O)[C@@H]1CSSC[C@H](NC(=O)[C@@H](Cc2ccccc2)NC(=O)CCOCCOCCOCCOCCOCCOCCNC(=O)CCc2cn(CC[18F])nn2)C(=O)N[C@@H](Cc2ccc(O)cc2)C(=O)N[C@H](Cc2c[nH]c3ccccc23)C(=O)N[C@@H](CCCCN)C(=O)N[C@@H]([C@@H](C)O)C(=O)N1)C(=O)O`, the concentration for half-maximal inhibition (IC50) in series [1] stood at 0.0132 µM. In addition, the pH-dependent lipophilicity (logD) in series [2] is -2.77.

For the compound `C#CC(=O)NCC(=O)N[C@H](Cc1ccccc1)C(=O)N[C@H]1CSSC[C@@H](C(=O)N[C@H](C(=O)O)[C@@H](C)O)NC(=O)[C@H]([C@@H](C)O)NC(=O)[C@H](CCCCN)NC(=O)[C@@H](Cc2c[nH]c3ccccc23)NC(=O)[C@H](Cc2ccc(O)cc2)NC1=O`, in series [1], the IC50 was found to be 0.0014 µM. The same measure, in the same setting: the result for `C#CCCC(=O)N[C@H](Cc1ccccc1)C(=O)N[C@H]1CSSC[C@@H](C(=O)N[C@H](C(=O)O)[C@@H](C)O)NC(=O)[C@H]([C@@H](C)O)NC(=O)[C@H](CCCCN)NC(=O)[C@@H](Cc2c[nH]c3ccccc23)NC(=O)[C@H](Cc2ccc(O)cc2)NC1=O` reads 0.0018 µM; that for `C#CC(=O)NCCC(=O)NCC(=O)N[C@H](Cc1ccccc1)C(=O)N[C@H]1CSSC[C@@H](C(=O)N[C@H](C(=O)O)[C@@H](C)O)NC(=O)[C@H]([C@@H](C)O)NC(=O)[C@H](CCCCN)NC(=O)[C@@H](Cc2c[nH]c3ccccc23)NC(=O)[C@H](Cc2ccc(O)cc2)NC1=O`, 0.001 µM.

On to `C[C@@H](O)[C@@H]1NC(=O)[C@@H](NC(=O)[C@@H](Cc2cc3ccccc3[nH]2)NC(=O)CNC(=O)CCNC(=O)c2cn(CC[18F])nn2)CSSC[C@@H](C(=O)N[C@@H](CCCCN)C(=O)O)NC(=O)[C@H](Cc2ccc(O)cc2)NC(=O)[C@H]([C@@H](C)O)NC(=O)[C@@H](Cc2ccccc2)NC1=O`, for which the IC50 in series [1] was > 10000 µM. Besides, the pH-dependent lipophilicity (logD) in series [2] was -1.14. The like results for `C[C@@H](O)[C@H](NC(=O)[C@@H]1CSSC[C@H](NC(=O)[C@@H](Cc2ccccc2)NC(=O)CCc2cn(CC[18F])nn2)C(=O)N[C@@H](Cc2ccc(O)cc2)C(=O)N[C@H](Cc2c[nH]c3ccccc23)C(=O)N[C@@H](CCCCN)C(=O)N[C@@H]([C@@H](C)O)C(=O)N1)C(=O)O` were, in that order, 0.0029 µM and -1.5. As for `C[C@@H](O)[C@H](CO)NC(=O)[C@@H]1CSSC[C@H](NC(=O)[C@H](N)Cc2ccccc2)C(=O)N[C@@H](Cc2ccccc2)C(=O)N[C@H](Cc2c[nH]c3ccccc23)C(=O)N[C@@H](CCCCN)C(=O)N[C@@H]([C@@H](C)O)C(=O)N1` (H-[dF]CF[dW]KTC-{Threoninol(2S,3R)}; disulfide 2-7), the concentration for half-maximal inhibition (IC50) in series [3] was 0.0147 µM.
